Assay results taken from patent US11104676B2 (priority 2018, dated 2021).

Experiments:
[1] = molecular target: His-tagged recombinant human AXL cytoplasmic domain (Homo sapiens (Human), UniProt P30530); conditions: read-out: AXL enzyme IC50
Protocol: (§1) Compounds of Formula I were screened for their ability to inhibit AXL kinase using Invitrogen's LanthaScreen™ Eu Kinase Binding technology. […] After a 60-minute incubation at 22° C., the reaction was measured using a PerkinElmer EnVision multimode plate reader via TR-FRET dual wavelength detection, and the percent of control (POC) was calculated using a ratiometric emission factor. […] The POC values are fit to a 4 parameter logistic curve and the IC50 value is point where the curve crosses 50 POC.

[2] = molecular target: His-tagged recombinant human MER cytoplasmic domain (Homo sapiens (Human), UniProt Q12866); conditions: read-out: MER enzyme IC50
Protocol: as §1

[3] = molecular target: GST-tagged recombinant human TYRO3 kinase domain (Homo sapiens (Human), UniProt Q06418); conditions: read-out: TYRO3 enzyme IC50
GST-tagged recombinant human TYRO3 kinase domain, sequence (Q06418 518-790): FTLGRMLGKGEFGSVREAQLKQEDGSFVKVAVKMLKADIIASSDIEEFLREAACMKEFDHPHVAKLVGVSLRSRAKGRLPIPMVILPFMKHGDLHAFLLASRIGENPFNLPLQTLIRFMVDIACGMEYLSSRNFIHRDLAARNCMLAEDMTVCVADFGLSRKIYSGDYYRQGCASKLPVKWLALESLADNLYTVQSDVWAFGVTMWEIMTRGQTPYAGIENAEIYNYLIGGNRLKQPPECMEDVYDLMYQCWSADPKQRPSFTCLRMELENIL

His-tagged recombinant human MER cytoplasmic domain, sequence (Q12866 527-999): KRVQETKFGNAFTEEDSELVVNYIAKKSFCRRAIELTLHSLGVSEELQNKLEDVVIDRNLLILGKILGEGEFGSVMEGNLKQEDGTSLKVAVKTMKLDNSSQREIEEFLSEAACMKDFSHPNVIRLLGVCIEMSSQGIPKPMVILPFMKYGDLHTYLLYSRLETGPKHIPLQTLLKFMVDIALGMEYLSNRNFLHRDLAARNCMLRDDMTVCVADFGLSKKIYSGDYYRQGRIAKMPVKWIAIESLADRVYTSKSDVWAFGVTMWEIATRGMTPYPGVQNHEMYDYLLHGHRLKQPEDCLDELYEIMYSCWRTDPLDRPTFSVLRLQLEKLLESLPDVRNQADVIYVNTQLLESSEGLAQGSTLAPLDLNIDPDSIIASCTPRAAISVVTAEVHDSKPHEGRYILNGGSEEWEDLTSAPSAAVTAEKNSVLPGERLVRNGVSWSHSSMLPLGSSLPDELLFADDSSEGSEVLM
His-tagged recombinant human AXL cytoplasmic domain, sequence (P30530 473-894): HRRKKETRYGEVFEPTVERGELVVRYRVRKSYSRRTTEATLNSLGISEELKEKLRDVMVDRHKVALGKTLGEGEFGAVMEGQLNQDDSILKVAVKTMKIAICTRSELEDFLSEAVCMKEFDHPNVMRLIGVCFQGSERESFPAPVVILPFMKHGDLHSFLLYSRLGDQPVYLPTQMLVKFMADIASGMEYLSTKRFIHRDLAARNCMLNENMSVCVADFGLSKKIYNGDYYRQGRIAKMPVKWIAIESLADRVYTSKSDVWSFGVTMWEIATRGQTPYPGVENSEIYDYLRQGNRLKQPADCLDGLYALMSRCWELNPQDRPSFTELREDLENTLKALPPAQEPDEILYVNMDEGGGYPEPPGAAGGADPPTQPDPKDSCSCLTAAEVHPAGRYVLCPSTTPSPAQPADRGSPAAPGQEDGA

Compound	IC50 [1]	IC50 [2]	IC50 [3]
C[C@H](CO)Nc1n[nH]c2nccc(Oc3ccc(NC(=O)C4CC5(CC5)CN(c5ccc(F)cc5)C4=O)cc3F)c12 (stereo partly drawn) [Example 140, N-(3-fluoro-4-((3-(((R)-1-hydroxypropan-2-yl)amino)-1H-pyrazolo[3,4-b]pyridin-4-yl)oxy)phenyl)-5-(4-fluorophenyl)-6-oxo-5-azaspiro[2.5]octane-7-carboxamide]	355 nM	161 nM	1000 nM
C[C@H](CO)Nc1n[nH]c2nccc(Oc3ccc(NC(=O)C4(C)CCCN(c5ccc(F)cc5)C4=O)cc3F)c12 (stereo partly drawn) [Example 141, N-(3-fluoro-4-((3-(((R)-1-hydroxypropan-2-yl)amino)-1H-pyrazolo[3,4-b]pyridin-4-yl)oxy)phenyl)-1-(4-fluorophenyl)-3-methyl-2-oxopiperidine-3-carboxamide]	485 nM	178 nM	1000 nM
COCC(C)(C)Nc1n[nH]c2nccc(Oc3ccc(NC(=O)c4cn(CCO)c(=O)n(-c5ccc(F)cc5)c4=O)cc3F)c12 [Example 159, N-(3-fluoro-4-((3-((1-methoxy-2-methylpropan-2-yl)amino)-1H-pyrazolo[3,4-b]pyridin-4-yl)oxy)phenyl)-3-(4-fluorophenyl)-1-(2-hydroxyethyl)-2,4-dioxo-1,2,3,4-tetrahydropyrimidine-5-carboxamide]			420 nM
Cc1cc(C(=O)Nc2ccc(Oc3ccnc4[nH]nc(NC(C)CC(F)F)c34)cn2)c(=O)n(-c2ccc(F)cc2)c1 (centres unmarked) [Example 168, N-(5-((3-((4,4-difluorobutan-2-yl)amino)-1H-pyrazolo[3,4-b]pyridin-4-yl)oxy)pyridin-2-yl)-1-(4-fluorophenyl)-5-methyl-2-oxo-1,2-dihydropyridine-3-carboxamide]			248 nM
COC[C@@H](C)Nc1n[nH]c2nccc(Oc3ccc(NC(=O)c4cc(C(C)C)nn(-c5ccc(F)cc5)c4=O)cc3F)c12 [Example 175, (R)-N-(3-fluoro-4-((3-((1-methoxypropan-2-yl)amino)-1H-pyrazolo[3,4-b]pyridin-4-yl)oxy)phenyl)-2-(4-fluorophenyl)-6-isopropyl-3-oxo-2,3-dihydropyridazine-4-carboxamide]			292 nM
COC[C@@H](C)Nc1n[nH]c2nccc(Oc3ccc(NC(=O)c4cc(C(C)C)nn(-c5ccc(F)cc5)c4=O)nc3)c12 [Example 176, (R)-2-(4-fluorophenyl)-6-isopropyl-N-(5-((3-((1-methoxypropan-2-yl)amino)-1H-pyrazolo[3,4-b]pyridin-4-yl)oxy)pyridin-2-yl)-3-oxo-2,3-dihydropyridazine-4-carboxamide]			728 nM
COC[C@@H](C)Nc1n[nH]c2nccc(Oc3ccc(NC(=O)c4cc(C)cn(-c5ccc(F)cc5)c4=O)nc3)c12 [Example 178, (R)-1-(4-fluorophenyl)-N-(5-((3-((1-methoxypropan-2-yl)amino)-1H-pyrazolo[3,4-b]pyridin-4-yl)oxy)pyridin-2-yl)-5-methyl-2-oxo-1,2-dihydropyridine-3-carboxamide]			439 nM
CC(C)(O)C1(Nc2n[nH]c3nccc(Oc4ccc(NC(=O)c5ccnn(-c6ccc(F)cc6)c5=O)cc4F)c23)CCCC1 [Example 182, N-(3-fluoro-4-((3-((1-(2-hydroxypropan-2-yl)cyclopentyl)amino)-1H-pyrazolo[3,4-b]pyridin-4-yl)oxy)phenyl)-2-(4-fluorophenyl)-3-oxo-2,3-dihydropyridazine-4-carboxamide]			707 nM

The next compounds have a lower IC50 [3] than those just listed; values first:

IC50 [1]	IC50 [2]	IC50 [3]	Compound
		224 nM	CC(CC(F)F)Nc1n[nH]c2nccc(Oc3ccc(NC(=O)c4cn(C)cc(-c5ccc(F)cc5)c4=O)nc3)c12 (centres unmarked) [Example 167, N-(5-((3-((4,4-difluorobutan-2-yl)amino)-1H-pyrazolo[3,4-b]pyridin-4-yl)oxy)pyridin-2-yl)-5-(4-fluorophenyl)-1-methyl-4-oxo-1,4-dihydropyridine-3-carboxamide]
		133 nM	CCOC[C@H](C)Nc1n[nH]c2nccc(Oc3ccc(NC(=O)c4cc(C)cn(-c5ccc(F)cc5)c4=O)cc3F)c12 [Example 172, (S)-N-(4-((3-((1-ethoxypropan-2-yl)amino)-1H-pyrazolo[3,4-b]pyridin-4-yl)oxy)-3-fluorophenyl)-1-(4-fluorophenyl)-5-methyl-2-oxo-1,2-dihydropyridine-3-carboxamide]
		118 nM	CCn1cc(C(=O)Nc2ccc(Oc3ccnc4[nH]nc(NC(C)(C)COC)c34)c(F)c2)c(=O)n(-c2ccc(F)cc2)c1=O [Example 157, 1-ethyl-N-(3-fluoro-4-((3-((1-methoxy-2-methylpropan-2-yl)amino)-1H-pyrazolo[3,4-b]pyridin-4-yl)oxy)phenyl)-3-(4-fluorophenyl)-2,4-dioxo-1,2,3,4-tetrahydropyrimidine-5-carboxamide]
		106 nM	COC[C@@H](C)Nc1n[nH]c2nccc(Oc3ccc(NC(=O)c4cc(C5CC5)cn(-c5ccc(F)cc5)c4=O)nc3)c12 [Example 177, (R)-5-cyclopropyl-1-(4-fluorophenyl)-N-(5-((3-((1-methoxypropan-2-yl)amino)-1H-pyrazolo[3,4-b]pyridin-4-yl)oxy)pyridin-2-yl)-2-oxo-1,2-dihydropyridine-3-carboxamide]
		104 nM	COCC(C)(C)Nc1n[nH]c2nccc(Oc3ccc(NC(=O)c4cn(C)c(=O)n(-c5ccc(F)cc5)c4=O)cc3F)c12 [Example 158, N-(3-fluoro-4-((3-((1-methoxy-2-methylpropan-2-yl)amino)-1H-pyrazolo[3,4-b]pyridin-4-yl)oxy)phenyl)-3-(4-fluorophenyl)-1-methyl-2,4-dioxo-1,2,3,4-tetrahydropyrimidine-5-carboxamide]
